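Grown in 96-well plates, cells were treated for 48 hours with each compound at five concentrations. Insufficient inhibition: endpoint recorded as highest concentration tested. TGI: concentration producing complete growth inhibition.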
Assays:
Assay in all cases: NCI tumour cell line growth inhibition, 48 h
HCT-15 colon = tested on: HCT-15 colon
RXF 393 renal = tested on: RXF 393 renal
NCI-H522 lung = tested on: NCI-H522 lung
CCRF-CEM leukemia = tested on: CCRF-CEM leukemia
OVCAR-3 ovarian = tested on: OVCAR-3 ovarian
SR leukemia = tested on: SR leukemia
UACC-257 melanoma = tested on: UACC-257 melanoma
NCI/ADR-RES ovarian = tested on: NCI/ADR-RES ovarian
A549 NSCLC = tested on: A549 NSCLC
SW-620 colon = tested on: SW-620 colon

CSc1nc2c(c(=O)n1C)N=C(c1ccccc1)[C@H](C(CC(=O)c1ccccc1)c1ccccc1)C(c1ccccc1)N2 (stereo not given in full)
TGI (HCT-15 colon): > 100 µM
TGI (RXF 393 renal): > 100 µM
TGI (NCI-H522 lung): > 100 µM
TGI (CCRF-CEM leukemia): > 100 µM
TGI (OVCAR-3 ovarian): > 100 µM
TGI (SR leukemia): > 100 µM
TGI (UACC-257 melanoma): > 100 µM
TGI (NCI/ADR-RES ovarian): > 100 µM
TGI (A549 NSCLC): > 100 µM
TGI (SW-620 colon): > 100 µM

O=C1CSC(c2cccs2)N1c1nc2cc3sc(N4C(=O)CSC4c4cccs4)nc3cc2s1 (stereo not given)
TGI (HCT-15 colon): > 50 µM
TGI (RXF 393 renal): > 50 µM
TGI (NCI-H522 lung): > 50 µM
TGI (CCRF-CEM leukemia): > 50 µM
TGI (OVCAR-3 ovarian): > 50 µM
TGI (SR leukemia): > 50 µM
TGI (UACC-257 melanoma): > 50 µM
TGI (NCI/ADR-RES ovarian): > 50 µM
TGI (A549 NSCLC): > 50 µM
TGI (SW-620 colon): > 50 µM

COc1c(C)c2nc3ccccc3[nH]c2c2c(=O)ccnc12
TGI (HCT-15 colon): > 100 µM
TGI (RXF 393 renal): 71.7 µM
TGI (NCI-H522 lung): > 100 µM
TGI (CCRF-CEM leukemia): > 100 µM
TGI (OVCAR-3 ovarian): > 100 µM
TGI (SR leukemia): > 100 µM
TGI (UACC-257 melanoma): > 100 µM
TGI (NCI/ADR-RES ovarian): > 100 µM
TGI (A549 NSCLC): > 100 µM
TGI (SW-620 colon): > 100 µM

Reference: PubChem BioAssay (NCI)
